Measurements reported in patent US20050014806A1, “Substituted isoxazoles and their use as antibiotics” (priority 2001, published 2005).
Values after ≈ are worked out from the molar mass of the structure shown.

Legend:
[1] = system: Staphylococcus aureus (BCM-012); experiment: MIC by microdilution in microtiter plate, BCM-012; assay type: cell-based; settings: incubation 24 h at 35° C.
Description: (§1) In order to assess the antimicrobial activity of the compounds of the present invention a method of microdilution in microtiter plate was used. The compounds were diluted in a nutritious medium and, subsequently, distributed by two-fold serial dilutions in 96 well plates. Then, plates were inoculated with a bacterial suspension. After incubation for 24 h at 35° C. the minimum inhibitory concentration (MIC) of the drug in […] was determined as the lowest concentration of compound which inhibits the growth of the bacterium. Results included in Table 1 illustrate the antimicrobial activity of some of the compounds of the present invention in comparison with thus obtained with two compounds (linezolid and eperezolid) of a known antimicrobial activity. The antimicrobial activity of the compound versus Streptococcus faecalis (BCM-010, strain designation as for SALVAT collection) Staphylococcus aureus (BCM-012, strain designation as for SALVAT collection) and Moraxella catarrhalis (BCM-015, strain designation as for SALVAT collection), respectively, is shown in the different columns.

[2] = system: Moraxella catarrhalis (BCM-015); experiment: MIC by microdilution in microtiter plate, BCM-015; assay type: cell-based; settings: incubation 24 h at 35° C.
Description: as §1

[3] = system: Streptococcus faecalis (BCM-010); experiment: MIC by microdilution in microtiter plate, BCM-010; assay type: cell-based; settings: incubation 24 h at 35° C.; for MIC: Enterococcus faecalis
Description: as §1

HT-29 = experiment: cells; assay type: cell-based, human
Description: (§2) Antitumoral activity of the compounds of the present invention was evaluated by determining in vitro cell growth inhibition of 2 human colon adenocarcinome cell lines. The SBR (Sulphorhodamine B) protein dye assay described by the NCI (National Cancer Institute) was used. Results of Table 2 illustrate the antiproliferative activity of some of the compounds of the present invention versus the one obtained with exisulind (sulindac sulfone).

HCT-116 = experiment: cells; assay type: cell-based, human
Description: as §2

`CC(=O)NC[C@H]1CN(c2ccc(N3CCOCC3)c(F)c2)C(=O)O1` [Linezolid, linezolid, reference compound] was tested, and the MIC [1] was 2 µg/mL (≈ 5.93 µM), the MIC [2] was 4 µg/mL (≈ 11.9 µM) and the MIC [3] was 4 µg/mL (≈ 11.9 µM).

With `O=C(COc1ccc2ncccc2c1)N1CCN(c2ccc(-c3cc(CNc4ccon4)on3)cc2F)CC1` [Example 22, 1-(4-{2-fluoro-4-[5-(isoxazol-3-ylaminomethyl)-isoxazol-3-yl]-phenyl}piperazin-1-yl)-2(quinolin-6-yloxy)ethanone] the MIC [1] was 0.5 µg/mL (≈ 0.946 µM), the MIC [2] was 4 µg/mL (≈ 7.57 µM) and the MIC [3] was 1 µg/mL (≈ 1.89 µM).

Compound `C#CCOCC(=O)N1CCN(c2ccc(-c3cc(CNc4ccon4)on3)cc2F)CC1` [Example 18, 3-[3-fluoro-4-(3-propyn-1-yloxyacetyl)piperazin-1-ylphenyl]-5-(isoxazol-3-ylaminomethyl)isoxazole] has an MIC [1] of 2 µg/mL (≈ 4.55 µM) and an MIC [3] of 4 µg/mL (≈ 9.1 µM).

`O=Cc1ccc(OCC(=O)N2CCN(c3c(F)cc(-c4cc(CNc5ccon5)on4)cc3F)CC2)cc1` [Example 26, 4-[2-(4-{2,6-difluoro-4-[5-(isoxazol-3-ylaminomethyl)isoxazol-3-yl]phenyl}piperazin-1-yl)-2-oxoethoxy]benzaldehyde] gave an MIC [1] of 0.5 µg/mL (≈ 0.955 µM), an MIC [2] of 4 µg/mL (≈ 7.64 µM) and an MIC [3] of 1 µg/mL (≈ 1.91 µM).

In the case of `O=C(Cn1cncn1)N1CCN(c2ccc(-c3cc(CNc4ccon4)on3)cc2F)CC1` [Example 8, 3-[3-fluoro-4-(4-(1,2,4-triazol-1-yl)acetyl)piperazin-1-ylphenyl]-5-(isoxazol-3-ylaminomethyl)isoxazole], the MIC [1] is reported as 2 µg/mL (≈ 4.42 µM) and the MIC [3] is reported as 4 µg/mL (≈ 8.84 µM).

“sulindac sulfone [Exisulind, reference compound]” was tested, and the “Cell viability percentage at 100 μM HT-29” value (HT-29) was 38.1% and the “Cell viability percentage at 100 μM HCT-116” value (HCT-116) was 44.1%.

For `O=C(COc1ccc([N+](=O)[O-])cc1)N1CCN(c2ccc(-c3cc(CNc4ccon4)on3)cc2F)CC1` [Example 14, 3-[3-fluoro-4-(4-nitrophenyloxyaetyl)piperazin-1-ylphenyl]-5-(isoxazol-3-ylaminomethyl)isoxazole], the MIC [1] was 1 µg/mL (≈ 1.91 µM) and the MIC [3] was 2 µg/mL (≈ 3.83 µM).

With `N#Cc1ccc(OCC(=O)N2CCN(c3ccc(-c4cc(CNc5ccon5)on4)cc3F)CC2)cc1` [Example 17, 3-[3-fluoro-4-(4-cyanophenoxyacetyl)piperazin-1-ylphenyl]-5-(isoxazol-3-ylaminomethyl)isoxazole] the MIC [1] was 2 µg/mL (≈ 3.98 µM) and the MIC [3] was 2 µg/mL (≈ 3.98 µM).

`O=Cc1ccc(OCC(=O)N2CCN(c3ccc(-c4cc(CNc5ccon5)on4)cc3F)CC2)cc1` [Example 19, 3-[3-fluoro-4-(4-formylphenyloxyacetyl)piperazin-1-ylphenyl]-5-(isoxazol-3-ylaminomethyl)isoxazole] showed an MIC [1] of 1 µg/mL (≈ 1.98 µM) and an MIC [3] of 0.5 µg/mL (≈ 0.989 µM).

`O=C(CO)N1CCN(c2ccc(-c3cc(CNc4ccon4)on3)cc2F)CC1` [Example 1, 3-[3-fluoro-4-(hydroxyacetyl)piperazin-1-ylyhenyl]-5-(isoxazol-3-ylaminomethyl)isoxazole] gave an MIC [1] of 2 µg/mL (≈ 4.98 µM), an MIC [2] of 8 µg/mL (≈ 19.9 µM) and an MIC [3] of 4 µg/mL (≈ 9.97 µM).

`N#Cc1ccn(-c2ccc(-c3cc(CNc4ccon4)on3)cc2F)c1` [Example 25] was tested, and the MIC [1] was 0.5 µg/mL (≈ 1.43 µM), the MIC [2] was 16 µg/mL (≈ 45.8 µM) and the MIC [3] was 0.5 µg/mL (≈ 1.43 µM).

`O=C(c1ccno1)N1CCN(c2ccc(-c3cc(CNc4ccon4)on3)cc2F)CC1` [Example 3] showed an MIC [1] of 2 µg/mL (≈ 4.56 µM) and an MIC [3] of 4 µg/mL (≈ 9.12 µM).

With `Cc1cc(NCc2cc(-c3ccc(-n4ccnc4)c(F)c3)no2)sn1` [Example 32, [3-(3-fluoro-4-imidazol-1-ylphenyl)isoxazol-5-ylmethyl]-(3-methylisotiazol-5-yl)amine] the MIC [1] was 1 µg/mL (≈ 2.81 µM) and the MIC [3] was 1 µg/mL (≈ 2.81 µM).

Work on `O=C(Cn1cccc1)N1CCN(c2ccc(-c3cc(CNc4ccon4)on3)cc2F)CC1` [Example 10, 3-[3-fluoro-4-(4-(1-pyrrolyl)acetyl)piperazin-1-ylphenyl]-5-(isoxazol-3-ylaminomethyl)isoxazole] yielded an MIC [1] of 2 µg/mL (≈ 4.44 µM), an MIC [2] greater than 16 µg/mL and an MIC [3] of 4 µg/mL (≈ 8.88 µM).

`O=C(Cn1cccn1)N1CCN(c2ccc(-c3cc(CNc4ccon4)on3)cc2F)CC1` [Example 6] gave an MIC [1] of 2 µg/mL (≈ 4.43 µM), an MIC [2] greater than 16 µg/mL and an MIC [3] of 4 µg/mL (≈ 8.86 µM).

`O=Cc1ccn(-c2ccc(-c3cc(CNc4ccon4)on3)cc2F)c1` [Example 5] showed an MIC [1] of 1 µg/mL (≈ 2.84 µM), an MIC [2] of 8 µg/mL (≈ 22.7 µM) and an MIC [3] of 1 µg/mL (≈ 2.84 µM).

For `O=C(COc1ccc(/C=N\O)cc1)N1CCN(c2c(F)cc(-c3cc(CNc4ccon4)on3)cc2F)CC1` [Example 31, 4-[2-(4-{2,6-difluoro-4-[5-(isoxazol-3]aminomethyl)isoxazol-3-yl-penyl}-piperazin-1-yl)2-oxoethoxy]-benzaldoxime], the MIC [1] was 0.5 µg/mL (≈ 0.928 µM) and the MIC [3] was 1 µg/mL (≈ 1.86 µM).

In the case of `O=C(COc1cccnc1)N1CCN(c2ccc(-c3cc(CNc4ccon4)on3)cc2F)CC1` [Example 11, 3-[3-fluoro-4-(3-pyridyloxyacetyl)piperazin-1-ylphenyl]-5-(isoxazol-3-ylaminomethyl)isoxazole], the MIC [1] is reported as 2 µg/mL (≈ 4.18 µM) and the MIC [3] is reported as 4 µg/mL (≈ 8.36 µM).

`O=C(COCc1ccccn1)N1CCN(c2ccc(-c3cc(CNc4ccon4)on3)cc2F)CC1` [Example 16, 3-[3-fluoro-4-(2-pyridylmethoxyacetyl)piperazin-1-ylphenyl]-5-(isoxazol-3-ylaminomethyl)isoxazole] was tested, and the MIC [1] was 2 µg/mL (≈ 4.06 µM) and the MIC [3] was 4 µg/mL (≈ 8.12 µM).

`CC(=O)NC[C@H]1CN(c2ccc(N3CCN(C(=O)CO)CC3)c(F)c2)C(=O)O1` [Eperezolid, eperezolid, reference compound] showed an MIC [1] of 2 µg/mL (≈ 5.07 µM), an MIC [2] of 8 µg/mL (≈ 20.3 µM) and an MIC [3] of 4 µg/mL (≈ 10.1 µM).

For “1-(2-fluoro-4-{5-[(3-methylisotiazol-5-ylamino)-methyl]isoxazol-3-yl}phenyl)-1H-imidazol-4-carboxaldehyde [Example 33]”, the “BCM-012 MIC” value [1] was 0.5 µg/mL, the “BCM-015 MIC” value [2] was 4 µg/mL and the “BCM-010 MIC” value [3] was 2 µg/mL.

For `O=C(COc1ccccc1)N1CCN(c2ccc(-c3cc(CNc4ccon4)on3)cc2F)CC1` [Example 7, 1-(4-{2-fluoro-4-[5-(isoxazol-3-ylaminomethyl)-isoxazol-3-yl]-phenyl}piperazin-1-yl)-2-phenoxyethanone], the MIC [1] was 2 µg/mL (≈ 4.19 µM) and the MIC [3] was 4 µg/mL (≈ 8.38 µM).

Compound `O/N=C\c1ccn(-c2ccc(-c3cc(CNc4ccon4)on3)cc2F)c1` [Example 24] has an MIC [1] of 0.5 µg/mL (≈ 1.36 µM), an MIC [2] of 16 µg/mL (≈ 43.6 µM) and an MIC [3] of 0.5 µg/mL (≈ 1.36 µM).

In the case of `O=C(COCc1ccco1)N1CCN(c2ccc(-c3cc(CNc4ccon4)on3)cc2F)CC1` [Example 15, 3-[3-fluoro-4-(2-furylmethoxyacetyl)piperazin-1-ylphenyl]-5-(isoxazol-3-ylaminomethyl)isoxazole], the MIC [1] is reported as 2 µg/mL (≈ 4.15 µM) and the MIC [3] is reported as 4 µg/mL (≈ 8.31 µM).

`OCc1ccn(-c2ccc(-c3cc(CNc4ccon4)on3)cc2F)c1` [Example 23, (1-{2-fluoro-4-[5-(isoxazol-3-ylaminomethyl)-isoxazol-3-yl]phenyl}-1H-pyrrol-3-yl)methanol] was tested, and the MIC [1] was 0.5 µg/mL (≈ 1.41 µM), the MIC [2] was 4 µg/mL (≈ 11.3 µM) and the MIC [3] was 1 µg/mL (≈ 2.82 µM).

`O=C(COc1ccccn1)N1CCN(c2ccc(-c3cc(CNc4ccon4)on3)cc2F)CC1` [Example 12, 3-[3-fluoro-4-(2-pyridyloxyacetyl)piperazin-1-ylphenyl]-5-(isoxazol-3-ylaminomethyl)isoxazole] showed an MIC [1] of 2 µg/mL (≈ 4.18 µM) and an MIC [3] of 2 µg/mL (≈ 4.18 µM).

`COc1ccccc1NCc1cn(-c2ccc(-c3cc(CNc4ccon4)on3)cc2F)cn1` [Example 29, [3-(3-fluoro-4-{4-[(2-methoxiphenylamino)-methyl]imidazol-1-yl}phenyl)isoxazol-5-ylmethyl]isoxazol-3-ylamine] gave an MIC [1] of 0.5 µg/mL (≈ 1.09 µM), an MIC [2] of 4 µg/mL (≈ 8.69 µM) and an MIC [3] of 1 µg/mL (≈ 2.17 µM).

`Cc1cn(-c2ccc(-c3cc(CNc4cc(C)ns4)on3)cc2F)cn1` [Example 34, {3-[3-fluoro-4-(4-methylimidazolyl)phenyl]isoxazol-5-ylmethyl}-(3-methyl-isothiazol-5-yl)amine] gave an MIC [1] of 1 µg/mL (≈ 2.71 µM), an MIC [2] of 4 µg/mL (≈ 10.8 µM) and an MIC [3] of 1 µg/mL (≈ 2.71 µM).

Work on `Cc1ccccc1NCc1ccn(-c2ccc(-c3cc(CNc4ccon4)on3)cc2F)c1` [Example 30, (3-{3-fluoro-4-[3-(o-tolylaminomethyl)pyrrol-1-yl]phenyl}isoxazol-5-ylmethyl)isoxazol-3-ylamine] yielded an MIC [1] of 0.5 µg/mL (≈ 1.13 µM), an MIC [2] of 16 µg/mL (≈ 36.1 µM) and an MIC [3] of 1 µg/mL (≈ 2.25 µM).

`Fc1cc(-c2cc(CNc3ccon3)on2)ccc1-n1ccnc1` [Example 2, 3-(3-fluoro-4-imidazol-1-ylphenyl)-5-(isoxazol-3-ylaminomethyl)isoxazole] gave an MIC [1] of 2 µg/mL (≈ 6.15 µM) and an MIC [3] of 4 µg/mL (≈ 12.3 µM).

`O=Cc1cn(-c2ccc(-c3cc(CNc4ccon4)on3)cc2F)cn1` [Example 27, 1-{2-fluoro-4-[5-(isoxazol-3-ylaminomethyl)isoxazol-3-yl]phenyl}-1H-imidazol-4-carboxaldehyde] gave an MIC [1] of 0.5 µg/mL (≈ 1.42 µM), an MIC [2] of 4 µg/mL (≈ 11.3 µM) and an MIC [3] of 2 µg/mL (≈ 5.66 µM).

`O=C(COc1cccc([N+](=O)[O-])c1)N1CCN(c2ccc(-c3cc(CNc4ccon4)on3)cc2F)CC1` [Example 13, 3-[3-fluoro-4-(3-nitrophenyloxyacetyl)piperazin-1-ylphenyl]-5-(isoxazol-3-ylaminomethyl)isoxazole] showed an MIC [1] of 1 µg/mL (≈ 1.91 µM) and an MIC [3] of 2 µg/mL (≈ 3.83 µM).

With `O=C(c1cccnc1)N1CCN(c2ccc(-c3cc(CNc4ccon4)on3)cc2F)CC1` [Example 9, 3-[3-fluoro-4-(3-pyridylcarbonyl)piperazin-1-ylphenyl]-5-(isoxazol-3-ylaminomethyl)isoxazole] the MIC [1] was 2 µg/mL (≈ 4.46 µM), the MIC [2] was greater than 16 µg/mL and the MIC [3] was 4 µg/mL (≈ 8.92 µM).
